Data published in ChEMBL document CHEMBL3507680, “University of Dundee, Gates Library screen for HepG2 cell viability”.

assay: Human HepG2 cell viability assay in 384 well format; type: toxicity, cell-based; design: dose 125 nL, time 70.5 hour; concentration not given beside the values; conditions: HepG2 cells, read-out: Inhibition

In order of rising cytotoxicity at 70.5 h:
1. Cc1cc2n(n1)CC(CNCc1ccc(-n3ccnc3C)nc1)CN2 (stereo not drawn)  -20.7%
2. CC(NC(=O)NCc1cc[nH]n1)c1ccc2c(c1)CCC(=O)N2 (stereo not drawn)  -19.8%
3. COc1cc(CN(C(=O)Nc2cccnc2OC)C2CC2)ccc1O  -19.7%
4. CCOCC(O)CN1CCN(C(=O)c2cc(F)ccc2C)CC1 (stereo not drawn)  -18.9%
5. Cc1cnc(CNC(=O)NCc2cccnc2N(C)C)s1  -17.2%
6. Cc1noc(C)c1CCC(=O)N1CCCN(CC(N)=O)CC1  -16.1%
7. COc1cc(CCC(=O)NC2CC2)ccc1OCC(F)(F)F  -15.3%
8. CN(Cc1ccco1)C(=O)C1CSCN1C(=O)c1cccnc1 (stereo not drawn)  -15.1%
9. CC(C)c1nc(C(=O)NCCn2ccnc2)nn1-c1cccc(F)c1  -14.8%
10. Cc1ccc(CNC(=O)NCc2cccnc2N(C)C)s1  -14.6%
11. Cc1cnn(CC2CN(Cc3nc(-c4ccsc4)no3)CCO2)c1 (stereo not drawn)  -14.2%
12. Cc1cccc(CN(C)Cc2nc3c(cnn3C)c(=O)[nH]2)c1  -14.2%
13. CC(=O)NCc1ccc(C(=O)N2CCCC2c2cnn(C)c2)o1 (stereo not drawn)  -13.1%
14. CNS(=O)(=O)c1ccc(C(=O)NCCNc2ncccn2)cc1  -12.3%
15. Cc1ccc(CC(=O)N2CSCC2C(=O)N(C)Cc2ccco2)o1 (stereo not drawn)  -12.2%
16. Cc1nc(C)n(CC2CCCN2Cc2nc(-c3ccoc3)no2)n1 (stereo not drawn)  -11.7%
17. COC(=O)C(NC(=O)COC1CCCC1)c1cc(F)ccc1F (stereo not drawn)  -11.6%
18. Cc1ccc(CNC(=O)CN2C=Nc3ccccc3S2(=O)=O)s1  -11.3%
19. N#CC1(C(=O)N2CCCN(c3nccs3)CC2)CCCC1  -11%
20. COc1ccccc1COCC(O)CN1CC(n2cccn2)C1 (stereo not drawn)  -10.8%
21. COc1ccccc1CC(=O)NS(C)(=O)=O  -10.7%
22. CC(C)c1nnc2n1CCN(Cc1ncc(-c3ccccc3)o1)C2  -10.5%
23. Cc1cccc(-n2ncc(C(=O)N3CCn4c(C)nnc4C3)c2C)c1  -10.4%
24. CC(C(=O)NCc1ccnc(N2CCCC2)c1)n1cccn1 (stereo not drawn)  -10.3%
25. COC(=O)c1cc(C(=O)N2CCCC(C)C2)n(-c2ccccc2)n1 (stereo not drawn)  -10.2%
26. CC(NC(=O)NCCCN(C)C)c1ccc2c(c1)CCC(=O)N2 (stereo not drawn)  -10.2%
27. CC(C(=O)NCc1ccnc(N2CCOCC2)c1)n1cccn1 (stereo not drawn)  -10.1%
28. O=C(O)c1c[nH]c2cc(NS(=O)(=O)c3cccc(Cl)c3F)ccc12  -10.1%
29. Fc1ccc(-c2cnc(CN3CCn4c(nnc4C4CC4)C3)o2)cc1  -9.29%
30. COc1c(CNCc2ccc(N3CCCC3)nc2)c(C(C)C)nn1C  -9.28%
31. Cc1cc2n(n1)CC(CNCc1ccc(N3CCOCC3)nc1)CN2 (stereo not drawn)  -9.07%
32. COc1cc(CNC2CCc3nc(C)nn3C2)cc2c1OCCO2 (stereo not drawn)  -9%
33. CCS(=O)(=O)CCN1CCCC1c1noc(C)n1 (stereo not drawn)  -8.31%
34. O=C(CCNC(=O)C1CCCC1)NCc1ccccc1Cn1cncn1  -7.76%
35. CCOc1ccccc1C(CC(=O)Nc1ccncc1)NC(C)=O (stereo not drawn)  -7.74%
36. CCCN(CCC)C(=O)CN(C)C1CCc2ccccc21 (stereo not drawn)  -7.56%
37. CN(Cc1ccsc1)C(=O)c1ccc2c(c1)NC(=O)CO2  -7.5%
38. Cc1cnn(CCNCCCOc2ccccc2)c1  -7.1%
39. CCOc1ccnc(N2CCN(C(=O)c3cccc(C#N)c3)CC2)n1  -6.91%
40. Cn1cnc2c1CCN(Cc1noc(-c3ccccc3)n1)C2  -6.44%
41. CCc1nc(C)c(C(=O)NCCNc2ncccn2)s1  -6.37%
42. CC(NC(=O)CCc1ccsc1)c1ccc2c(c1)NC(=O)CO2 (stereo not drawn)  -6.31%
43. O=C(O)c1cc(NS(=O)(=O)c2cccc(Cl)c2F)ccc1Cl  -5.66%
44. Cc1csc(N2CCN(C(=O)C3(C#N)CCCC3)CC2)n1  -5.35%
45. CC(C)c1ccc(OCCC(=O)N2CCCC(C(N)=O)C2)cc1 (stereo not drawn)  -5.32%
46. Cc1ccc(CC(=O)N2CCN(CC(C)O)CC2)cn1 (stereo not drawn)  -5.27%
47. O=C(Cc1ccc2c(c1)CCCC2)NCCc1ccccn1  -5.18%
48. N#CC1(C(=O)N2CCCN(c3nccs3)CC2)CCCCC1  -4.97%
49. O=C(NCC1CCOC1)N1CCN(Cc2ccc3c(c2)CCO3)CC1 (stereo not drawn)  -4.97%
50. COCCOc1ccc(CNCC2CNc3cc(C)nn3C2)cn1 (stereo not drawn)  -4.87%
51. CCc1nc(C2CCCN2CCCSC)no1 (stereo not drawn)  -4.43%
52. CCn1c(CN2CCN(CCO)CC2)nc2c(F)cccc21  -4.39%
53. Cc1nccn1C1CCCN(C(=O)c2ccc(N3CCCC3)nn2)C1 (stereo not drawn)  -4.33%
54. COc1ccc(CN2CCCN(C(=O)C(C)n3ccnc3)CC2)cc1 (stereo not drawn)  -4.32%
55. Cc1nn(C)c(C)c1C1CCCN1C(=O)CCNc1ncccn1 (stereo not drawn)  -4.27%
56. Fc1ccccc1-c1nc(CNCCn2cccn2)cs1  -3.88%
57. CC(C)c1n[nH]c(C2CN(C(=O)C3=COCC3)CCO2)n1 (stereo not drawn)  -3.87%
58. Cc1csc(C2CCCN(C(=O)Cn3ccccc3=O)C2)n1 (stereo not drawn)  -3.71%
59. Cc1noc(C)c1CCC(=O)N1CCCN(C)CC1  -3.68%
60. Cc1nc(-c2ccsc2)ccc1C(=O)NC(C)CN1CCOCC1 (stereo not drawn)  -3.57%
61. CC1CN(CCOc2cccc(C#N)c2)CCN1Cc1nccn1C (stereo not drawn)  -3.4%
62. CC(NC(=O)c1ccsc1)c1ccc2c(c1)NC(=O)CO2 (stereo not drawn)  -3.38%
63. Cc1ccc(-c2nc(CNC(C)Cn3cccn3)cs2)o1 (stereo not drawn)  -3.26%
64. CC(C)Oc1ncccc1CNC(=O)N1CCSCC1  -2.87%
65. Cc1nc(C2CCCN(C(=O)Cn3ccccc3=O)C2)sc1C (stereo not drawn)  -2.49%
66. Cc1ccccc1SCC(=O)NS(=O)(=O)c1ccc2c(c1)OCCO2  -2.48%
67. Cc1noc(C)c1CCC(=O)N1CCN(Cc2cscn2)CC1  -2.32%
68. O=C(Cc1ccc2c(c1)CCO2)N1CCN(c2nccs2)CC1  -2.11%
69. Cc1noc(C)c1CC(=O)N1CCN(Cc2cscn2)CC1  -1.94%
70. Cc1nc(C2CCCN2C(=O)c2csc3c2CCCC3)no1 (stereo not drawn)  -1.72%
71. O=C(NCCN1CCc2ccccc2C1)c1scnc1Cl  -1.52%
72. CCNc1cc2c(nn1)CCN(C(=O)c1cccnc1N(C)C)C2  -1.46%
73. Cc1nc(CN2CCCC2c2c(C)nn(C)c2Cl)no1 (stereo not drawn)  -1.31%
74. Cc1cnn(CCNCc2nnc(Cc3ccccc3)o2)c1  -1.13%
75. Cc1cc(C2CCCN2C(=O)c2cc3c(s2)CCC3)no1 (stereo not drawn)  -0.925%
76. CC(=O)Nc1nc(C(=O)N2CCCC(c3cc(C)[nH]n3)C2)cs1 (stereo not drawn)  -0.899%
77. Cc1cc(C)n(CC2CCCCN2C(=O)CCc2ccncc2)n1 (stereo not drawn)  -0.893%
78. CC(=O)NCC1CCN(C(=O)CCOc2ccc(C(C)C)cc2)CC1  -0.488%
79. CC(C)Oc1cccc(CNC(=O)NC(C)(C(=O)O)c2ccco2)c1 (stereo not drawn)  -0.448%
80. CC(C(=O)N1CCN(Cc2ccc(C#N)cc2)CC1)n1ccnc1 (stereo not drawn)  -0.223%
81. Cc1csc(CNCc2c(C)nn(C)c2N2CCOCC2)n1  -0.213%
82. CCc1c(C(=O)N2CCCN(C(C)=O)CC2)cnn1C(C)(C)C  -0.109%
83. Cn1ccnc1CN1CCN(CCOc2cccc(C#N)c2)CC1  -0.0786%
84. Cc1ccc(CC(=O)N2CCN(CC(O)C(C)(C)C)CC2)cn1 (stereo not drawn)  0.113%
85. CC(NC(=O)c1ccc2c(c1)OCC(=O)N2)c1ccccc1F (stereo not drawn)  0.146%
86. Fc1ccc(-c2nc(CNCCn3cccn3)cs2)cc1  0.385%
87. CSCC(=O)NS(=O)(=O)c1ccc2c(c1)OCCO2  0.628%
88. O=C(C1COCCO1)N1CCN(Cc2ccc3c(c2)CCO3)CC1 (stereo not drawn)  1.06%
89. Cc1nc(COc2cccc(C#N)c2)no1  2.53%
90. COc1c(CNC2CCN(c3ncccn3)CC2)c(C(C)C)nn1C  2.8%
91. Cc1ccc(C)c(CNC(=O)NC(C)(C(=O)O)c2ccco2)c1 (stereo not drawn)  2.89%
92. CCc1nc(C)c(C(=O)NCCNc2cnccn2)s1  3.09%
93. CCc1nc(CN2CCOC(Cn3nc(C)nc3C)C2)no1 (stereo not drawn)  3.11%
94. CC(C)c1nn(C)c(Cl)c1CNCc1ccc2c(c1)OCCO2  3.82%
95. Cc1cc(C)c(CNC(=O)c2ccc3c(c2)CCC3)c(=O)[nH]1  4.13%
96. Cc1nc(C2CCCN2CCC(=O)N2CCc3ccccc32)no1 (stereo not drawn)  4.14%
97. CN(Cc1cnn(-c2ccccc2)n1)CC1CCCN1c1cccnn1 (stereo not drawn)  4.15%
98. CN(CCCOc1ccc(F)cc1)Cc1nc2c(cnn2C)c(=O)[nH]1  4.27%
99. COc1ccccc1CC(=O)NS(=O)(=O)c1cncc(Br)c1  4.46%
100. Cc1cc(CN2CCN(CCOc3cccc(C#N)c3)CC2)no1  5.03%
101. CC(NC(=O)CSCC#N)c1ccccc1 (stereo not drawn)  6.84%
102. Cc1nn(C)c(N2CCOCC2)c1CNC(c1cccs1)C(C)C (stereo not drawn)  6.88%
103. O=C(NCCc1ccc(Cl)s1)NCc1nnc2n1CCC2  8.18%
104. CCc1ncncc1C(=O)N1CCN(Cc2ccco2)CC1  10.8%
105. CCOc1ccccc1C(CC(=O)Nc1ncc(C)s1)NC(C)=O (stereo not drawn)  14.6%
106. Cc1ccc(CNCC2CNc3cc(C)nn3C2)cn1 (stereo not drawn)  15.9%
107. COC(=O)c1cc(C(=O)N2CCCCC2C)n(-c2ccccc2)n1 (stereo not drawn)  19.1%
108. CC(C)CNC(=O)CN1C=Nc2ccccc2S1(=O)=O  20.2%
109. Cc1cccc(C(=O)NC(C)CN2CCCC2=O)n1 (stereo not drawn)  21%
110. CC(=O)N1CCCN(C(=O)CCOc2ccc(C(C)C)cc2)CC1  21.2%
111. CC(C(=O)NCc1ccnc(N2CCN(C)CC2)c1)S(C)(=O)=O (stereo not drawn)  22.3%
112. CN(Cc1ccsc1)C(=O)Nc1cccnc1N1CCCC1  23%
113. Cn1ccnc1CN1CCN(CCOc2ccccc2C#N)CC1  23.6%
114. Cc1noc(NC(=O)c2ccc(Br)s2)n1  24.3%
115. CC(=O)Nc1nc(C(=O)N2CCCC(n3nc(C)cc3C)C2)cs1 (stereo not drawn)  31.5%
116. Cc1cnn(CCNCC(=O)NCCOc2ccccc2)c1  39.9%
117. COCCCN(C)Cc1nc2c(cnn2C)c(=O)[nH]1  42.4%
118. Cc1cnc2c(S(=O)(=O)NCC3CCS(=O)(=O)C3)cccc2c1 (stereo not drawn)  51.3%
